Paper PMC10817917, “Alkyl deoxyglycoside-polymyxin combinations against critical priority carbapenem-resistant gram-negative bacteria” (Scientific Reports, 2024)
Converted amounts (≈) assume the structure as drawn. Read-outs that look alike come from different tables or passages of the source.

Key:
[1] = test system: E. coli ATCC 25922; experiment: Broth microdilution MIC/MBC, glycosides with or without polymyxins; format: cell-based, Escherichia coli
[2] = test system: E. cloacae CQ1941; experiment: as above; format: cell-based
[3] = test system: K. pneumoniae CQ4921; experiment: as above; format: cell-based, Klebsiella pneumoniae
[4] = test system: K. pneumoniae CQ1942; experiment: Broth microdilution MIC, glycosides with or without polymyxins; format: cell-based, Klebsiella pneumoniae
[5] = test system: A. baumannii CQ4322; experiment: Broth microdilution MIC/MBC, glycosides with or without polymyxins; format: cell-based, Acinetobacter baumannii; settings: for MIC (antibiotic susceptibility profile) / RIS (susceptibility category): antibiotic alone
[6] = test system: K. pneumoniae CQ1947; experiment: Broth microdilution MIC, glycosides with or without polymyxins; format: cell-based, Klebsiella pneumoniae
[7] = test system: P. aeruginosa CQ4924; experiment: as above; format: cell-based, Pseudomonas aeruginosa; settings: for MIC (antibiotic susceptibility profile) / RIS (susceptibility category): antibiotic alone
[8] = test system: HEK-293T cells; experiment: Resazurin cell viability assay (cytotoxicity); format: cell-based, human; settings: tested alone (no polymyxin adjuvant); 72 h
Protocol: (§1) Cytotoxicity of each compound alone or in combination with different polymyxin concentrations was evaluated through the resazurin cell viability assay[49] in human embryonic HEK-293T cells, as well as in human colon adenocarcinoma Caco-2 cells, after a 72-h long incubation period.
(§2) HEK-293T and Caco-2 cells were grown in RPMI 1640 medium (VWR) supplemented with 10% FBS (Biowest), 1% PenStrep (Sigma Aldrich), and 1% glutamine (Biowest) in a humidified incubator at 37 °C with a 5% CO2 atmosphere. Twice a week, the medium was aspirated, the cells were washed with DPBS (VWR), trypsinized with trypsin–EDTA solution (Biowest), and resuspended in fresh culture medium. The dose-dependent effects of each glycoside or glycoside-polymyxin combination were evaluated by the resazurin cell viability assay. Polymyxins (colistin sulfate and PMB sulfate for microbiological assays, European Pharmacopoeia Reference Standards, Sigma-Aldrich) were firstly dissolved in sterilized Mili-Q water to a stock concentration of 1 mg/mL, while glycosides were dissolved in DMSO to a stock concentration of 30 mM. 1.5 × 10^4 cells/well in 96.5 µL of medium were seeded onto 96-well plates and incubated at 37 °C for 24 h. For each compound, ten stock dilutions (with concentrations from 750 to 75 µM) were prepared in fresh medium immediately prior to incubation. 16 µL of each dilution were added to each well so that the final glycoside concentrations ranged from 100 to 10 µM in each row in a final assay volume of 120 µL. In addition, the previously prepared polymyxin stock solutions were diluted in fresh medium, affording new stocks of 8, 4, and 2 µg/mL. The same volume (7.5 µL/well) of PMB or colistin was then added to each row to achieve a final polymyxin concentration of 0.5, 0.25, and 0.125 µg/mL, respectively, regardless of the glycoside concentration. In assays without polymyxin, the same volume (7.5 µL/well) of medium was added. In all assays, the maximum DMSO concentration was 0.33%. After a 72-h incubation at 37 °C, 12 µL of a 0.15 mg/mL resazurin (Sigma-Aldrich) in sterilized Mili-Q water were added to each well, and the plates were left incubating for another 4 h at 37 °C. Resorufin was measured at 570/600 nm, and the percentage of resazurin reduction, corresponding to the cell viability percentage, was calculated according to Eq. (1)[60]. IC50 values were obtained by best fitting the dose-dependent inhibition curves using the Prism 9® software. The results were expressed as the mean ± SD of three independent replicates, with only data from analysis with R^2 > 0.90 being considered.1 %Cellviability=Abssample-Absmediumcontrol/Abscellcontrol-Absmediumcontrol×100

[9] = test system: Caco-2 cells; experiment: Resazurin cell viability assay (cytotoxicity); format: cell-based, human; settings: tested alone (no polymyxin adjuvant); 72 h
Protocol: as §1, §2

[10] = test system: HEK-293 cells; design: method as in PMID 30532748; settings: polymyxin alone; cited from earlier work
[11] = test system: E. coli NCTC 13846; experiment: Broth microdilution MIC/MBC, glycosides with or without polymyxins; format: cell-based, Escherichia coli; settings: antibiotic alone; strain B
[12] = Escherichia coli, ATCC25922, antibiotic alone, strain A, read-out: MIC (antibiotic susceptibility profile)
[13] = Enterobacter cloacae, CQ1941, antibiotic alone, strain D, read-out: MIC (antibiotic susceptibility profile)
[14] = Klebsiella pneumoniae, CQ4921, antibiotic alone, strain C, read-out: MIC (antibiotic susceptibility profile)
[15] = Klebsiella pneumoniae, CQ1942, antibiotic alone, strain E, read-out: MIC (antibiotic susceptibility profile)
[16] = Klebsiella pneumoniae, CQ1947, antibiotic alone, strain F, read-out: MIC (antibiotic susceptibility profile)

`CNC(C)C1CCC(N)C(OC2C(N)CC(N)C(OC3OCC(C)(O)C(NC)C3O)C2O)O1` (centres unmarked) [Gentamicin, reference compound] gave an MIC [1, 12] of 0.5 µg/mL (≈ 1.05 µM), an MIC [2, 13] of at least 128 µg/mL and an MIC [3, 14] of 0.25 to 0.5 µg/mL (≈ 0.523 to 1.05 µM). For the same compound, the MIC [4, 15] was 1 µg/mL (≈ 2.09 µM), the “MIC (antibiotic susceptibility profile)” value ([5]; strain G) was 32 to 64 µg/mL and the MIC [6, 16] was 64 µg/mL (≈ 134 µM). The “MIC (antibiotic susceptibility profile)” value ([7]; strain H) was 2 µg/mL (≈ 4.19 µM) and the “RIS (susceptibility category)” value ([7]; strain H) was “wt”.
Work on `NCC[C@H](O)C(=O)N[C@@H]1C[C@H](N)[C@@H](O[C@H]2O[C@H](CN)[C@@H](O)[C@H](O)[C@H]2O)[C@H](O)[C@H]1O[C@H]1O[C@H](CO)[C@@H](O)[C@H](N)[C@H]1O` [Amikacin, reference compound] yielded an MIC [1, 12] of 1 to 2 µg/mL (≈ 1.71 to 3.42 µM), an MIC [2, 13] of at least 128 µg/mL and an MIC [3, 14] of 0.5 to 2 µg/mL (≈ 0.854 to 3.42 µM). The MIC [4, 15] was 16 µg/mL (≈ 27.3 µM), the “MIC (antibiotic susceptibility profile)” value ([5]; strain G) was at least 128 µg/mL and the MIC [6, 16] was 32 µg/mL (≈ 54.6 µM). The “MIC (antibiotic susceptibility profile)” value ([7]; strain H) was 4 µg/mL (≈ 6.83 µM).
Compound `CO/N=C(\C(=O)N[C@@H]1C(=O)N2C(C(=O)O)=C(COC(C)=O)CS[C@H]12)c1csc(N)n1` [Cefotaxime, reference compound] has an MIC [1, 12] of 0.06 µg/mL (≈ 0.132 µM), an MIC [2, 13] of at least 128 µg/mL and an MIC [3, 14] of 2 µg/mL (≈ 4.39 µM). For the same compound, the “RIS (susceptibility category)” value ([3]; antibiotic alone, strain C) was “I/R”, the MIC [4, 15] was at least 128 µg/mL and the “RIS (susceptibility category)” value ([5]; strain G) was “ERP”. The MIC [6, 16] was at least 128 µg/mL and the “RIS (susceptibility category)” value ([7]; strain H) was “ERP”.
Compound `NC[C@H]1O[C@H](O[C@H]2[C@H](O)[C@@H](O[C@H]3O[C@H](CO)[C@@H](O)[C@H](N)[C@H]3O)[C@H](N)C[C@@H]2N)[C@H](N)C[C@@H]1O` [Tobramycin, reference compound] has an MIC [1, 12] of 0.5 µg/mL (≈ 1.07 µM), an MIC [2, 13] of at least 128 µg/mL and an MIC [3, 14] of 0.25 µg/mL (≈ 0.535 µM). For the same compound, the MIC [4, 15] was 16 µg/mL (≈ 34.2 µM), the “MIC (antibiotic susceptibility profile)” value ([5]; strain G) was 32 µg/mL (≈ 68.4 µM) and the MIC [6, 16] was at least 128 µg/mL. For the same compound, the “MIC (antibiotic susceptibility profile)” value ([7]; strain H) was 1 µg/mL (≈ 2.14 µM).
Work on `CC1(C)S[C@@H]2[C@H](NC(=O)[C@H](N)c3ccccc3)C(=O)N2[C@H]1C(=O)O` [Ampicillin, reference compound] yielded an MIC [1, 12] of 4 µg/mL (≈ 11.4 µM), an MIC [2, 13] of at least 128 µg/mL and an MIC [3, 14] of at least 128 µg/mL. The MIC [4, 15] was at least 128 µg/mL, the “RIS (susceptibility category)” value ([5]; strain G) was “ERP” and the MIC [6, 16] was at least 128 µg/mL. For the same compound, the “RIS (susceptibility category)” value ([7]; strain H) was “ERP”.
Compound `CC(C)(O/N=C(\C(=O)N[C@@H]1C(=O)N2C(C(=O)[O-])=C(C[n+]3ccccc3)CS[C@H]12)c1csc(N)n1)C(=O)O` [Ceftazidime, reference compound] has an MIC [1, 12] of 0.125 to 0.25 µg/mL (≈ 0.229 to 0.457 µM), an MIC [2, 13] of at least 128 µg/mL and an MIC [3, 14] of 1 µg/mL (≈ 1.83 µM). The MIC [4, 15] was at least 128 µg/mL, the MIC [6, 16] was at least 128 µg/mL and the “MIC (antibiotic susceptibility profile)” value ([7]; strain H) was 4 µg/mL (≈ 7.32 µM).
With colistin [reference compound] the MIC ([1]; agent alone, no adjuvant (polymyxin conc. 0), strain A) was 0.5 µg/mL, the “MICB (MIC of colistin individually)” value ([1]; alone) was 0.5 µg/mL and the “MIC (antibiotic susceptibility profile)” value ([1]; antibiotic alone, strain A) was 0.5 to 1 µg/mL. It also gave an IC50 [8] of over 115 µg/mL, an IC50 [9] of over 115 µg/mL and an MIC ([2]; agent alone, no adjuvant (polymyxin conc. 0), strain D) of 0.5 µg/mL. For the same compound, the “MICB (MIC of colistin individually)” value ([2]; alone) was 0.5 µg/mL, the “MIC (antibiotic susceptibility profile)” value ([2]; antibiotic alone, strain D) was 0.125 to 1 µg/mL and the IC50 [10] was over 1000 µg/mL. For the same compound, the MIC ([3]; agent alone, no adjuvant (polymyxin conc. 0), strain C) was 0.5 µg/mL, the “MICB (MIC of colistin individually)” value ([3]; alone) was 0.5 µg/mL and the “MIC (antibiotic susceptibility profile)” value ([3]; antibiotic alone, strain C) was 0.125 to 1 µg/mL. The “MIC (antibiotic susceptibility profile)” value [11] was 4 µg/mL, the MIC ([4]; agent alone, no adjuvant (polymyxin conc. 0), strain E) was 0.5 µg/mL and the “MICB (MIC of colistin individually)” value ([4]; alone) was 0.5 µg/mL. The “MIC (antibiotic susceptibility profile)” value ([4]; antibiotic alone, strain E) was 0.125 to 1 µg/mL, the MIC ([5]; agent alone, no adjuvant (polymyxin conc. 0), strain G) was 0.5 µg/mL and the “MICB (MIC of colistin individually)” value ([5]; alone) was 0.5 µg/mL. The “MIC (antibiotic susceptibility profile)” value ([5]; strain G) was 0.5 to 1 µg/mL, the MIC ([6]; agent alone, no adjuvant (polymyxin conc. 0), strain F) was 0.5 µg/mL and the “MICB (MIC of colistin individually)” value ([6]; alone) was 0.5 µg/mL. For the same compound, the “MIC (antibiotic susceptibility profile)” value ([6]; antibiotic alone, strain F) was 0.125 to 1 µg/mL, the MIC ([7]; agent alone, no adjuvant (polymyxin conc. 0), strain H) was 1 µg/mL and the “MICB (MIC of colistin individually)” value ([7]; alone) was 1 µg/mL. For the same compound, the “MIC (antibiotic susceptibility profile)” value ([7]; strain H) was 1 to 2 µg/mL.
